Assay results: ChEMBL document CHEMBL1201862, “PubChem BioAssay data set” (2004)
The source made the active and inactive calls.

Tests used:
[1] = biological target: T1, Replicative DNA helicase DnaB (Mycobacterium tuberculosis, UniProt P9WMR3); assay: DnaB intein splicing inhibitors, dose response, biochemical, cell-free fluorescence (AID 449749); format: functional
T1 sequence (P9WMR3 whole entry): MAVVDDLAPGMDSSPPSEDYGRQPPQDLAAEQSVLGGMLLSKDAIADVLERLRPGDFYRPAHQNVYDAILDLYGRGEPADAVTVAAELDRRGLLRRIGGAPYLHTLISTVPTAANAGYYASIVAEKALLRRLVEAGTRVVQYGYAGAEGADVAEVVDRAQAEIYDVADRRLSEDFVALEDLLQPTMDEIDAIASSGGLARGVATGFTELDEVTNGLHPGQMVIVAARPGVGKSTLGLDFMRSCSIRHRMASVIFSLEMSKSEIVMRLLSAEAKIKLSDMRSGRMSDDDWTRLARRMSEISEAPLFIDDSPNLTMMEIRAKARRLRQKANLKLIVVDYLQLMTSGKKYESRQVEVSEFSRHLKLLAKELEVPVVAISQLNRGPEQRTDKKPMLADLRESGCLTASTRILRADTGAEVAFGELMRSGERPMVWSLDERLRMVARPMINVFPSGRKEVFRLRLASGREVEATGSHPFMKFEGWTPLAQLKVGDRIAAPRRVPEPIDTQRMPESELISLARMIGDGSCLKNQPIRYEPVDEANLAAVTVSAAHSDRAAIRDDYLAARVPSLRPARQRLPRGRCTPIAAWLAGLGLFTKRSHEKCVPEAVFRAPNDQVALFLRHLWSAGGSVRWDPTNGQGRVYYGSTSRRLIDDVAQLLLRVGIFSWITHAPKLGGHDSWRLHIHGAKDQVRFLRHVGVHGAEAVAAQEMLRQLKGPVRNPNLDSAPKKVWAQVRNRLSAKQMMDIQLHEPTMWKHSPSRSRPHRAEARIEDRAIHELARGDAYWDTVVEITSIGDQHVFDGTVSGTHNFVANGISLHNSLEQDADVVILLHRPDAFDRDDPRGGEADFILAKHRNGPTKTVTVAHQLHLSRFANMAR

Protein RecA = biological target: T2, Protein RecA (Mycobacterium tuberculosis, UniProt P9WHJ3); assay: Fluorescence Cell-Free Homogeneous Dose Retest to Identify Inhibitors of RecA-Intein Splicing Activity. [Related pubchem assays (depositor defined):AID2097, AID2223, AID489010, AID492950]; format: functional
T2 sequence (P9WHJ3 whole entry): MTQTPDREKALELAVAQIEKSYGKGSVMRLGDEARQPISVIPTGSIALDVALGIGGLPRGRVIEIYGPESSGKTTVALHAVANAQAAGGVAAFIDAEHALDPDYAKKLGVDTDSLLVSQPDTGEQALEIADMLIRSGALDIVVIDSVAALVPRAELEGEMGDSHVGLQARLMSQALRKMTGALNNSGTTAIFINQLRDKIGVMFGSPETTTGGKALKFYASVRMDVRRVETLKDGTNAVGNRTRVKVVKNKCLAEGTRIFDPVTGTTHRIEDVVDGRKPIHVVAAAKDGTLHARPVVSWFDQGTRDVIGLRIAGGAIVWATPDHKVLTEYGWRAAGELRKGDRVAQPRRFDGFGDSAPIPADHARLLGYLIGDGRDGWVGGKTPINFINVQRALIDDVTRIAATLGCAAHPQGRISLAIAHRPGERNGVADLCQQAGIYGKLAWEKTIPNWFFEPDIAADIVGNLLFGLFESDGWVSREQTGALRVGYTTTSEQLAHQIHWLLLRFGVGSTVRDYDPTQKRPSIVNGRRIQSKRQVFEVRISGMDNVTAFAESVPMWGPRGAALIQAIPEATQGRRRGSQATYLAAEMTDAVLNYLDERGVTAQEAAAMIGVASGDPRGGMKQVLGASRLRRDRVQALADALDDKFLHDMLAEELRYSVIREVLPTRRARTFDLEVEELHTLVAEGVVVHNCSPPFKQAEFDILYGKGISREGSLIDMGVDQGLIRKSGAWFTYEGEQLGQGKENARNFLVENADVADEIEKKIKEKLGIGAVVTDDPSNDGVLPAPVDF

Cytochrome P450 2C19 = Cytochrome P450 2C19 (Homo sapiens, UniProt P33261); assay: Cytochrome panel assay with activity outcomes. Panel member name: p450-cyp2c19 Compounds with AC50 equal or less than 10 uM are considered active; format: functional
Sequence of Cytochrome P450 2C19 (P33261 whole entry): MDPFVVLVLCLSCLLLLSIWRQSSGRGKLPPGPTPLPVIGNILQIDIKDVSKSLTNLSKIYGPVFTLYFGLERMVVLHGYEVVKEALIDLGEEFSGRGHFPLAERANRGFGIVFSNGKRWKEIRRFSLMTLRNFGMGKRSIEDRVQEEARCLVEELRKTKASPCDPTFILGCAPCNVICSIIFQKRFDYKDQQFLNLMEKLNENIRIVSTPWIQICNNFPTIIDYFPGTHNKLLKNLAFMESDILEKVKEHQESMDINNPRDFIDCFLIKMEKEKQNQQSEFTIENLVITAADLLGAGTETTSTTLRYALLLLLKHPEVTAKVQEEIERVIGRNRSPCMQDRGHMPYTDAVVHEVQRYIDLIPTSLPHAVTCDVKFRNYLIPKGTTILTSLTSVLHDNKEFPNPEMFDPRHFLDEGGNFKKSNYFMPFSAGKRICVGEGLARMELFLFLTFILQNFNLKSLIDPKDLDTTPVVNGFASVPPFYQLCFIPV

Cytochrome P450 2D6 = Cytochrome P450 2D6 (Homo sapiens, UniProt P10635);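 also: CYP2D6 member of a cytochrome P450 panel assay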
Sequence of Cytochrome P450 2D6 (P10635 whole entry): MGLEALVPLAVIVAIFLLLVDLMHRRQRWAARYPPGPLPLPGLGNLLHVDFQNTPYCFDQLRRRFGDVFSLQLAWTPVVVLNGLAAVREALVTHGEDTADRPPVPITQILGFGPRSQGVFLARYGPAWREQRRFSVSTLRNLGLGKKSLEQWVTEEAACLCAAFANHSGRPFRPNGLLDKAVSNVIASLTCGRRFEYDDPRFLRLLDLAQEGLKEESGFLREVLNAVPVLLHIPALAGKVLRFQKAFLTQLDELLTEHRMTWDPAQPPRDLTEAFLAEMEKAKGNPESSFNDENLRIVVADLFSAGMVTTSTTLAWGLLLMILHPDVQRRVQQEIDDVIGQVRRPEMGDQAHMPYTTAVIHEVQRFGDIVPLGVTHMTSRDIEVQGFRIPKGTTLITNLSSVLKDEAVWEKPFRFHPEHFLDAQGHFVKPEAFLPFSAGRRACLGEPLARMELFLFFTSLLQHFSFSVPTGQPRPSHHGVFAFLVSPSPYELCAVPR

Cytochrome P450 3A4 = Cytochrome P450 3A4 (Homo sapiens, UniProt P08684);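 also: CYP3A4 tested as one member of a cytochrome P450 panel screen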
Sequence of Cytochrome P450 3A4 (P08684 whole entry): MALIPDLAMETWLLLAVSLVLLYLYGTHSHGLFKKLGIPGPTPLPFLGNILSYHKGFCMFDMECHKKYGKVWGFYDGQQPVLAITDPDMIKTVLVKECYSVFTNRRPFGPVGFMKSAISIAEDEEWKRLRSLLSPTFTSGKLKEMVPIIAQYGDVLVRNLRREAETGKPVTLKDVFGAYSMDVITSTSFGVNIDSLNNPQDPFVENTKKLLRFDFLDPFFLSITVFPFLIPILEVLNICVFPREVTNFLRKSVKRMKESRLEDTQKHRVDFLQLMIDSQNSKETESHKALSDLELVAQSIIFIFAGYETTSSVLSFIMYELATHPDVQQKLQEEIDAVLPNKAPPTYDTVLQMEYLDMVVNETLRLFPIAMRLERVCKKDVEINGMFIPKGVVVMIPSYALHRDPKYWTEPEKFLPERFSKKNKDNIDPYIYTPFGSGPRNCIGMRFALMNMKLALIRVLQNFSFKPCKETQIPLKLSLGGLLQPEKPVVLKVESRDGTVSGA

Cytochrome P450 1A2 = biological target: T3, Cytochrome P450 1A2 (Homo sapiens, UniProt P05177);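 also: PubChem cytochrome P450 panel assay, CYP1A2 panel member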
T3 sequence (P05177 whole entry): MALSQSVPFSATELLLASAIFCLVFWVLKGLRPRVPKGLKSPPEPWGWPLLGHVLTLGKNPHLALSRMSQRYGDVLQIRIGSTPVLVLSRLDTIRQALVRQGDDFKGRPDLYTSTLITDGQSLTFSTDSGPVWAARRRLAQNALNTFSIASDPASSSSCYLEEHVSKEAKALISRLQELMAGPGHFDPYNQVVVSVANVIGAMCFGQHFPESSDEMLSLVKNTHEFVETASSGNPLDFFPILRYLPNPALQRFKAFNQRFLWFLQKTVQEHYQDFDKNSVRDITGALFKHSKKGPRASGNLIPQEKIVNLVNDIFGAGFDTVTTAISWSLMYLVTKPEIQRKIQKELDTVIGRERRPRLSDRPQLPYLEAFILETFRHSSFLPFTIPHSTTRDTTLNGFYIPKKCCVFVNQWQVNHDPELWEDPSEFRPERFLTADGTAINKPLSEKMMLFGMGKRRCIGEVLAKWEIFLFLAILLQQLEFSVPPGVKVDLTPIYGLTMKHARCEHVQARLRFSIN

[2] = inhibitors of intracellular T. cruzi replication, confirmation, NIH3T3 host cells, beta-gal luminescence (AID 2044); format: functional, cell-based;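 also: intracellular parasites grown in NIH/3T3 mouse fibroblasts as host cells; luminescent beta-galactosidase reporter signal from transgenic T. cruzi replicating inside host cells; inhibitors lower the luminescence signal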
[3] = cytotoxicity toward NIH3T3 fibroblasts, dose response, counter-screen, cell-based, ATP luminescence, mouse fibroblasts (AID 2010); format: functional;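 also: cells exposed to compound for about 90 hours before reading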
[4] = biological target: T4, Corticotropin-releasing factor receptor 2/Corticotropin-releasing factor-binding protein (Homo sapiens, UniProt P24387+Q13324); assay: activators of CRF receptor 2 with binding protein – uHTS hits, confirmation (AID 602473); format: functional; conditions: read-out: EC50_Mean
T4 sequence (Q13324 whole entry): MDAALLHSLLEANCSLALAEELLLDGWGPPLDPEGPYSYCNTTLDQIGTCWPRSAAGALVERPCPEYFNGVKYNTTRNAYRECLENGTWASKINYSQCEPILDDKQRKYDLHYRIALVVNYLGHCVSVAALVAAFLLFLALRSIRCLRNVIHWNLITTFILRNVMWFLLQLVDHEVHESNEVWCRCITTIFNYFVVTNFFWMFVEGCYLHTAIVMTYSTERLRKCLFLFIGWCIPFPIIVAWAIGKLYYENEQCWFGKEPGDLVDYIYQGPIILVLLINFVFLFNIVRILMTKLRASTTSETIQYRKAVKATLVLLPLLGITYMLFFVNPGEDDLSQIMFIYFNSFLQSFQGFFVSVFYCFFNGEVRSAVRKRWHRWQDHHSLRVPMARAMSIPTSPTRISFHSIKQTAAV
T4 sequence (P24387 whole entry): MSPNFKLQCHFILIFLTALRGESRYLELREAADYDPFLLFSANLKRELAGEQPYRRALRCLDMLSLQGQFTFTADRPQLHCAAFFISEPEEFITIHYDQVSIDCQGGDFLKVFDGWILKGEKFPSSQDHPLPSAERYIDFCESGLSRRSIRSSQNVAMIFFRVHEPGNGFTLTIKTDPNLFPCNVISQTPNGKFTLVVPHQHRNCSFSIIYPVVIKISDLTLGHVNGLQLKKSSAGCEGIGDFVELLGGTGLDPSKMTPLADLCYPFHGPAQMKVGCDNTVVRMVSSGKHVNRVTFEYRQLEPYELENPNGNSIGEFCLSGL

## CCOC(=O)CSCCOc1ccc(C=C2C(=O)NC(=O)NC2=O)cc1OC
[1]
  AC50: 46.6 µM (active)
Protein RecA
  EC50: > 380 µM (inactive)

## N#CC1(C#N)CC(C=O)=C(N)C1(C#N)CC(=O)C12CC3CC(CC(C3)C1)C2 (stereo not drawn)
[1]
  AC50: > 380 µM (inactive)
Protein RecA
  EC50: 10 µM (active)

## CN1CCN(c2ncc3nc(CCc4ccccc4)c(=O)n(Cc4cccs4)c3n2)CC1
Cytochrome P450 2C19; read-out: AC50
  AC50: 39.8 µM (inconclusive)
Cytochrome P450 2D6
  AC50: 20 µM (inconclusive)
Cytochrome P450 3A4
  AC50: 12.6 µM (inconclusive)

## COC(=O)[C@@]1(Cc2ccccc2)[C@H]2c3cc(C(=O)N4CCCC4)n(Cc4cccc5ccccc45)c3C[C@H]2CN1C(=O)c1ccccc1
Cytochrome P450 1A2
  AC50: 15.8 µM (inconclusive)

## c1cncc(CNc2ncn[nH]2)c1
Cytochrome P450 2C19
  AC50: inconclusive

## O=C(Nc1ccccc1)N1CCCC2(CCN(S(=O)(=O)c3ccccc3)CC2)C1
Cytochrome P450 2D6
  AC50: 15.8 µM (inconclusive)
Cytochrome P450 1A2
  AC50: 15.8 µM (inconclusive)
Cytochrome P450 3A4
  AC50: 5.01 µM (inconclusive)

## CCN(CC)C(=O)C1=C(C)N=C(S)NC1c1cn(-c2ccccc2)nc1-c1ccc(Cl)cc1 (stereo not drawn)
Cytochrome P450 2C19; read-out: AC50
  AC50: 17.8 µM (inconclusive)
Cytochrome P450 1A2
  AC50: 28.2 µM (inconclusive)

## N#Cc1c(SCC(N)=O)nsc1SCc1ccccc1Cl
Cytochrome P450 1A2
  AC50: 4.47 µM (inconclusive)
Cytochrome P450 3A4
  AC50: 10 µM (inconclusive)

## O=C(Nc1cccc(F)c1)N1CC[C@@]2(CCCN(C(=O)c3ccco3)C2)C1
Cytochrome P450 1A2
  AC50: 25.1 µM (inconclusive)
Cytochrome P450 3A4
  AC50: 10 µM (inconclusive)

## CC1(C)[C@@H]2CC[C@]1(C)[C@@H](OC(=O)/C=C\c1ccccc1)C2
Cytochrome P450 2C19; read-out: AC50
  AC50: 0.00398 µM (inconclusive)

## C=CC[C@@H](C(=O)O)c1ccccc1
Cytochrome P450 2C19
  AC50: inconclusive

## CCOc1ccc(CN(C)C(=O)CCl)cc1
[1]
  AC50: > 380 µM (inactive)
Protein RecA
  EC50: 4.09 µM (active)

## Cc1ccc(C(=O)NC(C#N)=C(Cl)Cl)cc1
[1]
  AC50: 27.1 µM (active)
Protein RecA
  EC50: 19.5 µM (active)

## CCC(CC)C(=O)Nc1c2c(nn1-c1ccc(OC)cc1)CS(=O)(=O)C2
Cytochrome P450 2C19; read-out: AC50
  AC50: 35.5 µM (inconclusive)
Cytochrome P450 3A4
  AC50: 25.1 µM (inconclusive)

## CCCCNC(=O)CCn1c(=S)[nH]c2cc3c(cc2c1=O)OCO3
Cytochrome P450 2C19; read-out: AC50
  AC50: 3.55 µM (inconclusive)

## CC(C)Cn1c(N)c(S(=O)(=O)c2cccs2)c2nc3ccccc3nc21
[1]
  AC50: > 380 µM (inactive)
Protein RecA
  EC50: 32.9 µM (inconclusive)

## CCOC(=O)N1C(=O)[C@](c2ccc(Cl)cc2)(C(C)C)N1C(=O)OCC
[1]
  AC50: 3.09 µM (active)
Protein RecA
  EC50: 3.34 µM (active)

## C[C@@H](C(=O)O)c1ccc(C[C@@H]2CCCC2=O)cc1
Cytochrome P450 2C19
  AC50: inconclusive

## COC(=O)c1ccccc1Oc1c(F)c(F)nc(N2CCOCC2)c1F
Cytochrome P450 2D6
  AC50: 35.5 µM (inconclusive)
Cytochrome P450 1A2
  AC50: 28.2 µM (inconclusive)

## Cc1ccc2nc(Nc3ccccc3O)nc(-c3ccccc3)c2c1
Cytochrome P450 2C19; read-out: AC50
  AC50: 2.24 µM (inconclusive)
Cytochrome P450 2D6
  AC50: 3.55 µM (inconclusive)
Cytochrome P450 3A4
  AC50: 35.5 µM (inconclusive)

## Cc1cc(C(=O)CCl)c(C)n1CC1COc2ccccc2O1 (stereo not drawn)
[2]
  EC50: 1.81 µM (active)
[3]
  EC50: 4.42 µM (active)
[1]
  AC50: 21.7 µM (active)
Protein RecA
  EC50: 13.5 µM (active)

## Cc1ccc(C2CC(c3cccs3)=NN2C(=O)CSC2=NCCS2)cc1 (stereo not drawn)
[1]
  AC50: 6.2 µM (active)
Protein RecA
  EC50: 6.68 µM (active)

## NS(=O)(=O)c1cc2c(cc1Cl)N[C@H](Cc1ccccc1)NS2(=O)=O
Cytochrome P450 1A2
  AC50: 3.16 µM (inconclusive)

## Cn1cc(-c2nc3cnc(Oc4cccc(Cl)c4)nc3n(C3CC3)c2=O)c2ccccc21
Cytochrome P450 1A2
  AC50: 12.6 µM (inconclusive)

## Cc1nn(-c2ccccc2)c2c1C(c1ccc(F)cc1F)C(C#N)=C(N)O2 (stereo not drawn)
[1]
  AC50: 7.25 µM (active)
Protein RecA
  EC50: 3.5 µM (active)

## CC(C)[C@@H]1[C@H]2CC[C@H](C2)[C@H]1N
Cytochrome P450 1A2
  AC50: 31.6 µM (inconclusive)
Cytochrome P450 3A4
  AC50: 15.8 µM (inconclusive)

## CN1CCN(c2ncc3nc(-c4cccs4)c(=O)n(CCC#N)c3n2)CC1
Cytochrome P450 1A2
  AC50: 15.8 µM (inconclusive)
Cytochrome P450 3A4
  AC50: 31.6 µM (inconclusive)

## COc1ccc(N(C(=O)c2ccco2)S(=O)(=O)c2cccs2)cc1
[1]
  AC50: 38.1 µM (active)
Protein RecA
  EC50: 32.6 µM (active)

## N#Cc1ccc(CC(=O)c2ccccc2)[nH]c1=O
[4]
  EC50: 12.2 µM (active)

## Cc1ccc(C2(c3ccc(C)c(O)c3C)CCN(C)CC2)c(C)c1O
Cytochrome P450 1A2
  AC50: 5.01 µM (inconclusive)

## Cn1c(CN2CCOCC2)nnc1SCc1ccccc1
Cytochrome P450 2C19; read-out: AC50
  AC50: 20 µM (inconclusive)

## CCOc1cc(NC(=O)c2ccccc2[N+](=O)[O-])c(OCC)cc1NC(=O)CC(C)C
Cytochrome P450 2C19; read-out: AC50
  AC50: 0.0112 µM (inconclusive)

## O=C(Cc1cc(O)n[nH]1)N/N=C/c1ccccc1[N+](=O)[O-]
[1]
  AC50: 4.19 µM (active)
Protein RecA
  EC50: 1.73 µM (active)

## Cc1ccsc1/C=N/NC(=O)Cc1cc(O)[nH]n1
[1]
  AC50: 1.68 µM (active)
Protein RecA
  EC50: 1.28 µM (active)

## CN1CCC(n2[nH]c(-c3ccccc3)c(Cc3ccccc3)c2=O)CC1 [BENZPIPERYLON]
Cytochrome P450 2D6
  AC50: 3.16 µM (inconclusive)
Cytochrome P450 1A2
  AC50: 1.58 µM (inconclusive)
